The target of one series is T1, Mutant GCase (V394L) (Mus musculus, UniProt P17439, V412L).
T1 construct: Fibroblast cells from wild type (WT) and GCase mutant mice; endogenous in cells; host or cells: mouse fibroblasts from V394L/V394L (4L/4L) and 4L/4L; saposin C-/- (4L;C*) mice
T1 sequence (P17439 20-515 V412L): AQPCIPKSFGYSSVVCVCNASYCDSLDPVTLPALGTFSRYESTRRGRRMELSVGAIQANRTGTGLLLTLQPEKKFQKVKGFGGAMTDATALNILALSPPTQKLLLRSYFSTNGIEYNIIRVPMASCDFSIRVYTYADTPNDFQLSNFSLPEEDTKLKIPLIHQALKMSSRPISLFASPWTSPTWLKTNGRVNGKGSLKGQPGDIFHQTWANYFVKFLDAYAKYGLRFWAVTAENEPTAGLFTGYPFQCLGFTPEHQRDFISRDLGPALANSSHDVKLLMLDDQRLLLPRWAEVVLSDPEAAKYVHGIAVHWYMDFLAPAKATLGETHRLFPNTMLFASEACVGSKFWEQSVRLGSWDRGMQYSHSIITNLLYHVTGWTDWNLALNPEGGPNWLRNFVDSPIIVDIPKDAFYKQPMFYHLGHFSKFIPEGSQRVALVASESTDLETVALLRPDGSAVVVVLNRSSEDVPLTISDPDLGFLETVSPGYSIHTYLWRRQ
The series can be described thus: GCase activity in mutant GCase fibroblasts treated with compounds. The following applies: for GCase activity (in words): 4L/4L and 4L;C* fibroblasts, 10 μM, vs untreated cells. It counts as cell-based. As for the experimental part:
(§1) FIG. 1. Screen of small molecules with NCGC607 as a positive control. Mutant GCase (V394L) fibroblasts were incubated with small molecules for 5 days at various concentration.
(§2) Fibroblast cells from wild type (WT) and GCase mutant mice, homozygous V394L/V394L (4L/4L) and 4L/4L/with saposin C−/− (4L;C*) were cultured in 10% Bovine Calf Serum/Dulbecco's Modified Eagle's medium (DMEM). The compounds were dissolved in Dimethyl sulfoxide (DMSO) at 5 mM as a stock solution and stored at −20° C. For cell treatment, the stock was diluted with DMEM and added to cells. The cells were incubated with the compounds for 5 days and changed with fresh media with the compound every two days.
(§3) Cell pellets were collected and washed with Phosphate-buffered saline twice. The cell pellets were homogenized in 1% Na-taurocholate/1% Triton X-100 (Tc/Tx). GCase activity was determined fluorometrically with 4MU-Glc as substrate in 0.25% Tc/Tx diluted in 0.1M citrate phosphate (CP) buffer (pH 5.6) as described. Protein concentrations of cells and tissues were determined by BCA assay using BSA as standard.

The target of series [1] is T2, mutant V394L GCase protein (Mus musculus, UniProt P17439, V412L).
T2 construct: Fibroblast cells from wild type (WT) and GCase mutant mice; endogenous in cells; host or cells: mouse fibroblasts from V394L/V394L (4L/4L) and 4L/4L; saposin C-/- (4L;C*) mice
T2 sequence (P17439 20-515 V412L): T1 sequence (P17439 20-515 V412L)
Put plainly: Immunoblot of GCase protein in mutant fibroblasts. It counts as cell-based. The following applies: 4L/4L and 4L;C* fibroblasts, 10 μM, 5 days, vs untreated cells. The protocol: as §2
(§4) Cell pellets were collected and washed with Phosphate-buffered saline twice. The pellets were suspended in M-per lysis buffer. Freeze and thaw twice to break down the cell membrane. Protein concentration was determined by the bicinchoninic acid assay. The proteins were resolved on 4-12% NuPAGE gel (Invitrogen) and were transferred to PVDF membrane using iBlot 2 gel transfer device (Life Technologies) following manufactural instruction. The blotted membranes were incubated with Goat anti-mouse GCase (1:1000) in 1.5% BSA/1.5% milk/PBS buffer overnight at 4° C. followed by IRdye Donkey anti-Goat 1:5000. The signals were detected using LI-COR detection system according to manufacturer's instruction.

For series [2], the target named is T3, GCase (4L/4L and 4L;C* fibroblasts) (Mus musculus, UniProt P17439, V412L).
T3 construct: Fibroblast cells from wild type (WT) and GCase mutant mice; endogenous in cells; host or cells: mouse fibroblasts from V394L/V394L (4L/4L) and 4L/4L; saposin C-/- (4L;C*) mice
T3 sequence (P17439 20-515 V412L): T1 sequence (P17439 20-515 V412L)
Put plainly: Immunofluorescence co-localization of GCase and Lamp1 in mutant fibroblasts. To be noted: vs untreated cells. It counts as cell-based. The protocol:
(§5) FIG. 5. Increased GCase protein in lysosomes of mouse fibroblasts treated with M chaperone compounds. (A) GCase (green) was co-stained with lysosomal marker, Lamp1 (red). Co-localization of GCase and Lamp1 (orange) indicates lysosomal localization of GCase.
as §2
(§6) The cells grown on the chamber slides were fixed in 4% paraformaldehyde for 30 mins, followed by washing twice in Phosphate-buffered saline. The cells were permeablized with 0.3% Triton X-100 in Phosphate-buffered saline and washed with Phosphate-buffered saline for three times. After blocking for 30 min in 1.5% BSA/0.5% gelatin diluted in Phosphate-buffered saline, primary antibody, mouse anti-Lamp1 (1:200) and goat anti-mGCase (1:200) were applied to the cells and incubated overnight at 4° C. The signals were detected using Donkey anti-goat-FITC (1:500) and goat anti-mouse-Texas Red (1:500) to the cognate primary antibody. The stained cells were mounted with antifade containing DAPI.

The target in series [3] is T4, WT GCase (Mus musculus, UniProt P17439).
T4 construct: Fibroblast cells from wild type (WT) and GCase mutant mice; endogenous in cells; host or cells: wild-type mouse fibroblasts
T4 sequence (P17439 20-515): T1 sequence (P17439 20-515 V412L) with L393V
Put plainly: Immunoblot of GCase protein in WT fibroblasts. It is filed as cell-based. The following applies: 10 μM, 5 days, vs untreated cells. The protocol: as §2, §4

In series [4] the target is T4, WT GCase. The series can be described thus: GCase activity in WT fibroblasts treated with compounds. It is filed as cell-based. To be noted: 5 days, 10 μM, vs untreated cells. The protocol:
as §2, §3

Another series concerns the target T5, GCase (WT fibroblasts) (Mus musculus, UniProt P17439).
T5 construct: Fibroblast cells from wild type (WT) and GCase mutant mice; endogenous in cells; host or cells: wild-type mouse fibroblasts
T5 sequence (P17439 20-515): T1 sequence (P17439 20-515 V412L) with L393V
The series can be described thus: Immunofluorescence co-localization of GCase and Lamp1 in WT fibroblasts. It is filed as cell-based. The following applies: vs untreated cells. As for the experimental part: as §5, §2, §6

For series [5], the system named is MDR1-MDCK cell monolayers. Put plainly: MDR1-MDCK assay, blood-brain-barrier penetration potential. It is filed as in vitro ADME. To be noted: MDR1-MDCK. The protocol: (§7) MDR1-MDCK cell monolayers were grown to confluence on collagen-coated, microporous membranes in 12-well assay plates. The permeability assay buffer was Hanks' balanced salt solution containing 10 mM HEPES and 15 mM glucose at a pH of 7.4. The buffer in the receiver chamber also contained 1% bovine serum albumin. The dosing solution concentration was 5 μM of test article in the assay buffer. Cell monolayers were dosed on the apical side (A-to-B) or basolateral side (B-toA) and incubated at 37° C. with 5% CO2 in a humidified incubator. Samples were taken from the donor and receiver chambers at 120 minutes. Each determination was performed in duplicate. The flux of lucifer yellow was also measured post-experimentally for each monolayer to ensure no damage was inflicted to the cell monolayers during the flux period. All samples were assayed by LC-MS/MS using electrospray ionization.
(§8) The apparent permeability (Papp) and percent recovery were calculated as follows: Papp=(dCr/dt)×Vr/(A×CA) Percent Recovery=100×((Vr×Cr^final)+(Vd×Cd^final))/(Vd×CN)
(§9) Where, dCr/dt is the slope of the cumulative concentration in the receiver compartment versus time in μM s^−1; Vr is the volume of the receiver compartment in cm^3; Vd is the volume of the donor compartment in cm^3; A is the area of the insert (1.13 cm^2 for 12-well); CA is the average of the nominal dosing concentration and the measured 120 minute donor concentration in μM; CN is the nominal concentration of the dosing solution in μM; Cr final is the cumulative receiver concentration in M at the end of the incubation period; Cd final is the concentration of the donor in M at the end of the incubation period.
(§10) Efflux ratio (ER) is defined as Papp (B-to-A)/Papp (A-to-B).

Another series has as its system MDR1 (P-gp). The series is described as above. It counts as in vitro ADME. To be noted: dog; for Papp A→B at 120 min, 5 μM: MDCK-MDR1, pH 7.4, A to B; for Papp B→A at 120 min, 5 μM: MDCK-MDR1, pH 7.4, B to A. The protocol: as §7, §8, §9, §10
A further series concerns MDR1. Described as above. It is filed as in vitro ADME. To be noted: dog, 5 μM, 120 minutes. As for the experimental part: as §7, §8, §9, §10
Another series concerns the target T6, Recombinant GCase (Homo sapiens, UniProt P04062).
T6 sequence (P04062 40-536): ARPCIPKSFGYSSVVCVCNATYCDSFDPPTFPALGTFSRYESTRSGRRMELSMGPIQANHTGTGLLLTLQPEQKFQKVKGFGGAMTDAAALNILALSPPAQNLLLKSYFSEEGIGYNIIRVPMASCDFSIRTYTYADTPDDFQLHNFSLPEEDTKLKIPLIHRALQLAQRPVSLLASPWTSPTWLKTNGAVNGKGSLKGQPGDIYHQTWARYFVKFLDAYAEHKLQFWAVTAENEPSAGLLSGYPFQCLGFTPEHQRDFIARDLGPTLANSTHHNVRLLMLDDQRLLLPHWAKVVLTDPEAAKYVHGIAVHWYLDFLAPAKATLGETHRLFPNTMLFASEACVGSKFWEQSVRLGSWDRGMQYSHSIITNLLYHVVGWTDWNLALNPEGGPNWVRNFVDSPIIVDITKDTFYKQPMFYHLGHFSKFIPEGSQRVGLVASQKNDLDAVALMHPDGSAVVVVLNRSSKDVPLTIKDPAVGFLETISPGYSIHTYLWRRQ
The series can be described thus: Recombinant GCase activity with or without compound. It is filed as biochemical. To be noted: for Inhibition of GCase (in words): recombinant GCase. The protocol:
FIG. 2. […] Recombinant GCase was incubated with or without compound 216 at various concentration and GCase activity was determined.

In series [6] the test system is Mutant GCase (V394L) fibroblasts. Put plainly: Toxicity in small molecule screen on mutant GCase fibroblasts. It counts as cell-based, mouse. The following applies: 5 days, various concentration. The protocol:
as §1, §2

The mark [7] stands for this setting: average, 5 μM, read-out: Papp AVE.
Setting [8] is: replicate 1, 5 μM, read-out: Papp R1.
[9] abbreviates: replicate 2, 5 μM, read-out: Papp R2.

Positions count from the first letter of the chain named. Like-named read-outs stand apart in the source and are kept apart here.

In the case of `O=C(COc1ccccc1C(=O)NCC1CCCO1)Nc1ccc(Br)cc1` (stereo in doubt) [Compound 6, 2-((4-bromophenylcarbamoyl)methoxy)-N(((R)tetrahydrofuran-2-yl)methyl)benzamide], the “GCase activity (in words)” value on Mutant GCase (V394L) (5 days) and at WT GCase [4] was “Increased” throughout. Besides, the “GCase protein levels (in words)” value (in series [1]; at WT GCase [3]) was “increased” throughout. Moreover, the “Lysosomal localization of GCase protein (Pearson index, in words)” value (in series [2]; at GCase (WT fibroblasts)) was “enhanced” throughout.
Regarding `O=C(COc1ccccc1C(=O)NC[C@@H]1CCCO1)Nc1ccc(Br)cc1` [Compound 8, 2-((4-bromophenylcarbamoyl)methyoxy)-N—(((S)-tetrahydrofuran-2-yl)methyl)benzamide], the “Brain Penetration Classification” value is “High” in [5] and “high” in series [5] (listed as #8). The values for the Papp A→B at 120 min, 5 μM in the series on MDR1 (P-gp) (setting [7]), in the series with MDR1 (P-gp) (setting [8]) and in the series on MDR1 (P-gp) (setting [9]) were 32.1 ×10⁻⁶ cm/s, 33.4 ×10⁻⁶ cm/s and 30.8 ×10⁻⁶ cm/s, respectively. In addition, the Papp B→A at 120 min, 5 μM in the series on MDR1 (P-gp) (setting [7]) is 34.4 ×10⁻⁶ cm/s; with MDR1 (P-gp) (setting [8]), 31.8 ×10⁻⁶ cm/s; with MDR1 (P-gp) (setting [9]) it was 37 ×10⁻⁶ cm/s. Further, the efflux ratio at 120 min, 5 μM with MDR1 (P-gp) (MDCK-MDR1, pH 7.4, Papp (B-to-A)/Papp (A-to-B), P-gp) amounted to 1.1. The recovery at 120 min, 5 μM in the series on MDR1 (MDCK-MDR1, pH 7.4, A to B) came to 77%; in the series on MDR1 (MDCK-MDR1, pH 7.4, B to A), 86%. Moreover, the “GCase activity (in words)” value at Mutant GCase (V394L) (5 days) and on WT GCase [4] was “Increased” throughout. Further, the “Activity in the mutant GCase fibroblasts assay (comparison of stereoisomers)” value at Mutant GCase (V394L) (mutant GCase fibroblasts) was “better activity than Compound 6”. Moreover, the “GCase protein levels (in words)” value (in series [1]; at WT GCase [3]) was “increased” in each case. In addition, the “Lysosomal localization of GCase protein (Pearson index, in words)” value (in series [2]; on GCase (WT fibroblasts)) was “enhanced” throughout.
As to `O=C(COc1ccccc1C(=O)NCC1CCCO1)Nc1ccc(Br)cc1` (centres unmarked) [Compound 216], the “GCase activity (in words)” value on Mutant GCase (V394L) (5 days) and at WT GCase [4] was “Increased” in each case. Moreover, the “Activation function on GCase compared to NCGC607” value on Mutant GCase (V394L) (V394L fibroblasts, 5 days, various concentration) was “superior”. The “GCase protein levels (in words)” value (in [1]; on WT GCase [3]) was “increased” each time. In addition, the “Inhibition of GCase (in words)” value at Recombinant GCase is reported as “non-inhibitory”; on Recombinant GCase (listed as compound 216), “did not inhibit”. In addition, the AC50 on Recombinant GCase (recombinant GCase incubated with compound at various concentration, read-out: AC50, activation effect on GCase) was 10.1 µM. The “Lysosomal localization of GCase protein (Pearson index, in words)” value (in [2]; on GCase (WT fibroblasts)) was “enhanced” in each case. For the same compound, the “Toxicity compared to 607” value in series [6] is “reduced toxicity”.

Source of the values: patent publication US10588888B2, “CNS-accessible pharmacological chaperones for treatment of acid β-glucosidase-related disease states” (Children's Hospital Medical Center, priority 2017, dated 2020).
